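Test compounds were applied to cells in 96-well plates for 48 hours at 5 doses. GI50 marks 50% less growth.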 Calls of active or inactive are those of the source. Rule as the data show it: active = GI50 up to about 1.1 µM and inactive = higher. Where a SMILES comes first, the peptide text is derived from it. The star is where a group is joined. Boc = CC(C)(C)OC(=O)*

Some test systems named below: A498; EKVX; HOP-62; HOP-92; HT-29; KM12; LOX IMVI; MDA-MB-231; MOLT-4; NCI-H226; OVCAR-5; RXF 393; SF-539; SK-MEL-2; SK-OV-3; SN12C; T47D; UO-31; K562; SR.
Common to all, as to experiment: inhibition of tumour cell growth, NCI panel, 48 h

Regarding `Cc1c(/N=C/C=C/c2ccccc2)c(=O)n(-c2ccccc2)n1C`, the GI50 was 14.7 µM (inactive) with A498; 27.2 µM (inactive) with EKVX; 33.3 µM (inactive) in the experiment with HOP-62; 30.3 µM (inactive) in the experiment on HOP-92; 27.5 µM (inactive) with HT-29; 21.3 µM (inactive) in the experiment with KM12. The GI50 in the experiment with LOX IMVI is 4.86 µM (inactive); with MDA-MB-231, 34.8 µM (inactive); in the experiment with MOLT-4, 12.9 µM (inactive); with NCI-H226, 13.6 µM (inactive); in the experiment on OVCAR-5 it was 58.9 µM (inactive); in the experiment on RXF 393, 39.7 µM (inactive). The GI50 is 23 µM (inactive) with SF-539; 88.7 µM (inactive) in the experiment on SK-MEL-2; > 100 µM (inactive) with SK-OV-3; 16.1 µM (inactive) in the experiment with SN12C; 23 µM (inactive) in the experiment on T47D; 36.5 µM (inactive) in the experiment on UO-31.
Consider `COC(=O)c1cn(CCCC(=O)O)nn1`, for which the GI50 with EKVX, in the experiment with HOP-62, with HOP-92, with HT-29, in the experiment with KM12 and in the experiment with LOX IMVI was > 100 µM (inactive) in each case. The GI50 in the experiment with MDA-MB-231, with MOLT-4, in the experiment on NCI-H226, with RXF 393, with SF-539 and with SK-MEL-2 was > 100 µM (inactive) throughout. Besides, the GI50 with SN12C, in the experiment with T47D and in the experiment with UO-31 was > 100 µM (inactive) each time.
Consider `COc1cc2c3c(c1OC)C1(C=CC(=O)C=C1)CC3N(C(=O)OC(C)(C)C(Cl)(Cl)Cl)CC2` (stereo unspecified), for which the GI50 with A498 was 16.7 µM (inactive); with EKVX, 16.8 µM (inactive); in the experiment on HOP-62, 17.6 µM (inactive); with HOP-92, 14.4 µM (inactive); in the experiment with HT-29, 8.53 µM (inactive); in the experiment on K562, 4.68 µM (inactive). In addition, the GI50 is 9.2 µM (inactive) with KM12; 10.1 µM (inactive) in the experiment with LOX IMVI; 2.97 µM (inactive) in the experiment with MOLT-4; 15.9 µM (inactive) in the experiment on NCI-H226; 2.52 µM (inactive) in the experiment on OVCAR-5; 4.16 µM (inactive) in the experiment with RXF 393. Moreover, the GI50 in the experiment on SF-539 was 15.7 µM (inactive); with SK-MEL-2, 11 µM (inactive); in the experiment with SK-OV-3, 26.2 µM (inactive); with SN12C it was 11.6 µM (inactive); in the experiment on SR it was 3.5 µM (inactive); in the experiment with UO-31, 14.5 µM (inactive).
On to `CCC(C)C(=O)OC1C(=O)OC2CC3C(C)=CC(=O)C(O)C3(C)C3C4(O)OCC23C1C(C)C4O` (stereo unspecified), for which the GI50 in the experiment on A498 was 0.514 µM (active); with EKVX, 0.264 µM (active); in the experiment on HOP-62, < 0.019 µM (active); with HOP-92, 0.0208 µM (active); in the experiment with K562, < 0.01 µM (active); with KM12, < 0.0107 µM (active). Moreover, the GI50 is < 0.01 µM (active) in the experiment with LOX IMVI; 0.032 µM (active) in the experiment on MDA-MB-231; < 0.016 µM (active) in the experiment on NCI-H226; 0.0776 µM (active) in the experiment on OVCAR-5; < 0.01 µM (active) in the experiment on SF-539; < 0.0292 µM (active) with SK-MEL-2. Also, the GI50 in the experiment with SK-OV-3 is 0.392 µM (active); with SN12C it was 0.0632 µM (active); in the experiment with T47D, < 0.0166 µM (active); with UO-31, 0.0324 µM (active).
As to `Cc1cc(C)[n+](CCOc2ccc(/C(=C(/Cl)c3ccccc3)c3ccccc3)cc2)c(C)c1.[O-][Cl+3]([O-])([O-])[O-]`, the GI50 was 3.87 µM (inactive) with A498; 0.887 µM (active) in the experiment on EKVX; 2.37 µM (inactive) in the experiment with HOP-62; 0.989 µM (active) with HOP-92; 0.809 µM (active) in the experiment with HT-29; 0.257 µM (active) in the experiment with K562. The GI50 is 0.697 µM (active) in the experiment with KM12; 0.778 µM (active) in the experiment on LOX IMVI; 1.28 µM (inactive) with MOLT-4; 1.32 µM (inactive) in the experiment on NCI-H226; 2.69 µM (inactive) in the experiment with OVCAR-5; 2.49 µM (inactive) with RXF 393. The GI50 with SF-539 is 1.8 µM (inactive); in the experiment on SK-MEL-2, 0.865 µM (active); in the experiment on SK-OV-3, 1.25 µM (inactive); in the experiment on SN12C, 0.774 µM (active); in the experiment on SR, 0.804 µM (active); in the experiment with UO-31, 14.8 µM (inactive).
In the case of `CN1C=C(C(N)=O)C2CC(O)[C@@](NC(=O)CS(N)(=O)=O)(C(=O)O)C2C1` (stereo partly specified), the GI50 is 2.03 µM (inactive) in the experiment on A498; 4.19 µM (inactive) with EKVX; 1.82 µM (inactive) in the experiment on HOP-62; 1.49 µM (inactive) in the experiment with HOP-92; 3.33 µM (inactive) in the experiment on HT-29; 2.17 µM (inactive) in the experiment with K562. Further, the GI50 in the experiment on KM12 is 20.7 µM (inactive); with LOX IMVI, 2.37 µM (inactive); in the experiment on MOLT-4, 1.7 µM (inactive); with NCI-H226 it was 2.68 µM (inactive); in the experiment on OVCAR-5 it was 2.42 µM (inactive); in the experiment with RXF 393, 1.76 µM (inactive). Also, the GI50 in the experiment with SF-539 was 2.05 µM (inactive); in the experiment with SK-MEL-2, 2.92 µM (inactive); in the experiment on SK-OV-3 it was 2.47 µM (inactive); in the experiment on SN12C it was 18.2 µM (inactive); in the experiment on SR, 2.02 µM (inactive); in the experiment with UO-31, 3.05 µM (inactive).
Regarding `O=C(CCO)OCCCCCC/C=C\CCCCCC/C=C\CCCCCCCCOC(=O)CCO`, the GI50 is 23.3 µM (inactive) with A498; 18.3 µM (inactive) in the experiment on EKVX; 17.1 µM (inactive) with HOP-62; 18.2 µM (inactive) in the experiment on HOP-92; 17.7 µM (inactive) in the experiment with HT-29; 15.8 µM (inactive) in the experiment on K562. Besides, the GI50 in the experiment with KM12 was 19.1 µM (inactive); with LOX IMVI, 18.4 µM (inactive); in the experiment with MDA-MB-231, 18.5 µM (inactive); in the experiment on MOLT-4, 14.6 µM (inactive); in the experiment on OVCAR-5, 18.3 µM (inactive); in the experiment with RXF 393 it was 18.9 µM (inactive). The GI50 with SF-539 is > 100 µM (inactive); in the experiment with SK-MEL-2 it was 17.3 µM (inactive); in the experiment on SK-OV-3, 19.9 µM (inactive); with SN12C it was 17.2 µM (inactive); with T47D, 17.1 µM (inactive); in the experiment on UO-31 it was 18.6 µM (inactive).
In the case of `CCOC(=O)C12OC(OCC)(CC1(OCC)OCC)C1(CC1)C2=O` (stereo unspecified), the GI50 in the experiment with A498, with EKVX, in the experiment with HOP-62, with HOP-92, in the experiment with HT-29 and in the experiment on K562 was > 100 µM (inactive) throughout. Further, the GI50 with KM12, in the experiment with LOX IMVI, in the experiment with MDA-MB-231, in the experiment with MOLT-4, in the experiment with NCI-H226 and in the experiment with OVCAR-5 was > 100 µM (inactive) throughout. The GI50 with SF-539, in the experiment with SK-MEL-2, with SK-OV-3, with SN12C and in the experiment on UO-31 was > 100 µM (inactive) throughout.
Regarding `CCOC(=O)c1[nH]cc(C)c1-c1ccn(-c2ccccc2)c1`, the GI50 was > 100 µM (inactive) in the experiment with A498; 27 µM (inactive) in the experiment on EKVX; > 100 µM (inactive) in the experiment on HOP-62; 21.5 µM (inactive) in the experiment on HOP-92; 29.6 µM (inactive) in the experiment with HT-29; 21.1 µM (inactive) in the experiment on K562. Also, the GI50 is 19.6 µM (inactive) in the experiment on KM12; 41.8 µM (inactive) in the experiment on LOX IMVI; 18.3 µM (inactive) in the experiment with MOLT-4; 51.5 µM (inactive) in the experiment with NCI-H226; > 100 µM (inactive) in the experiment with OVCAR-5; 36.8 µM (inactive) with RXF 393. For the same compound, the GI50 with SF-539 is > 100 µM (inactive); in the experiment on SK-MEL-2, 61.5 µM (inactive); in the experiment with SK-OV-3, > 100 µM (inactive); with SN12C, 89.7 µM (inactive); in the experiment on SR, 15.6 µM (inactive); in the experiment with T47D, 35 µM (inactive). Besides, the GI50 in the experiment with UO-31 is 25.8 µM (inactive).
Regarding `Cc1oc(N)c(S(=O)(=O)c2ccc(Cl)cc2)c1C`, the GI50 is > 100 µM (inactive) in the experiment on A498; 45 µM (inactive) in the experiment with EKVX; > 100 µM (inactive) in the experiment on HOP-92; 54.3 µM (inactive) in the experiment on HT-29; 53.6 µM (inactive) in the experiment on K562; 37.1 µM (inactive) with KM12. In addition, the GI50 was 47.3 µM (inactive) in the experiment on MOLT-4; 53.1 µM (inactive) in the experiment on NCI-H226; > 100 µM (inactive) with OVCAR-5; 30.8 µM (inactive) with RXF 393; 25.8 µM (inactive) in the experiment with SF-539; 28 µM (inactive) in the experiment with SK-MEL-2. In addition, the GI50 with SK-OV-3 was 42.6 µM (inactive); in the experiment on SR, 86.3 µM (inactive); in the experiment with T47D, 31.2 µM (inactive); in the experiment with UO-31, 37 µM (inactive).
Consider `CCOC(=O)C(CC(C)C)NC(=O)C(Cc1ccccc1)NC(=O)CNC(=O)OC(C)(C)C` (stereo not drawn) (Boc-Gly-Phe-Leu-OEt; configuration not given here), for which the GI50 was 22.1 µM (inactive) in the experiment with A498; 22.3 µM (inactive) in the experiment with EKVX; 28.2 µM (inactive) in the experiment with HOP-62; 25.2 µM (inactive) with HOP-92; 18.1 µM (inactive) with HT-29; 19 µM (inactive) in the experiment with K562. Moreover, the GI50 with KM12 was 18.5 µM (inactive); with LOX IMVI, 18.2 µM (inactive); with MOLT-4, 11.1 µM (inactive); in the experiment on NCI-H226, 17.3 µM (inactive); in the experiment on RXF 393 it was 25.8 µM (inactive); with SF-539, 13.5 µM (inactive). In addition, the GI50 is 28.9 µM (inactive) in the experiment with SK-MEL-2; 20.8 µM (inactive) in the experiment on SK-OV-3; 19.2 µM (inactive) in the experiment on SN12C; 15.8 µM (inactive) in the experiment with SR; 26.5 µM (inactive) in the experiment with T47D; 45.8 µM (inactive) in the experiment with UO-31.

Values taken from ChEMBL document CHEMBL1201862, “PubChem BioAssay data set” (2004).
